From ChEMBL document CHEMBL4177721, “Synthesis, antitumor activity, and cytotoxicity of 4-substituted 1-benzyl-5-diphenylstibano-1H-1,2,3-triazoles” (Bioorg Med Chem Lett, 2018)
Calls of active or inactive are those of the source. No cut-off for these calls is given here.

Assays:
HL-60 [1] = experiment: Antitumor activity against human HL60 cells incubated for 72 hrs by MTT assay; assay type: functional, cell-based; conditions: HL-60, 72 h
DLD-1 [2] = experiment: Antitumor activity against human DLD1 cells incubated for 72 hrs by MTT assay; assay type: functional, cell-based; conditions: DLD-1, 72 h
HT-1080 [3] = experiment: Antitumor activity against human HT1080 cells incubated for 72 hrs by MTT assay; assay type: functional, cell-based; conditions: HT-1080, 72 h
[4] = Cytotoxicity against bovine aorta vascular endothelial cells assessed as reduction in cell viability incubated for 24 hrs by MTT assay; assay type: cell-based, Bos taurus; conditions: cattle
P388 [5] = experiment: Antitumor activity against mouse P388 cells incubated for 72 hrs by MTT assay; assay type: functional, cell-based; conditions: P388, 72 h
MCF7 [6] = experiment: Antitumor activity against human MCF7 cells incubated for 72 hrs by MTT assay; assay type: functional, cell-based; conditions: MCF7, 72 h
B16-F10 [7] = experiment: Antitumor activity against mouse B16F10 cells incubated for 72 hrs by MTT assay; assay type: functional, cell-based; conditions: B16-F10, 72 h
KB [8] = experiment: Antitumor activity against human KB cells incubated for 72 hrs by MTT assay; assay type: functional, cell-based
NUGC-3 [9] = experiment: Antitumor activity against human NUGC3 cells incubated for 72 hrs by MTT assay; assay type: functional, cell-based; conditions: NUGC-3, 72 h
KB [10] = experiment: Antitumor activity against human KB cells at 0.5 uM incubated for 72 hrs by MTT assay; assay type: functional, cell-based
HL-60 [11] = experiment: Antitumor activity against human HL60 cells at 0.5 uM incubated for 72 hrs by MTT assay; assay type: functional, cell-based
DLD-1 [12] = experiment: Antitumor activity against human DLD1 cells at 0.5 uM incubated for 72 hrs by MTT assay; assay type: functional, cell-based
P388 [13] = experiment: Antitumor activity against mouse P388 cells at 0.5 uM incubated for 72 hrs by MTT assay; assay type: functional, cell-based
B16-F10 [14] = experiment: Antitumor activity against mouse B16F10 cells at 0.5 uM incubated for 72 hrs by MTT assay; assay type: functional, cell-based
HT-1080 [15] = experiment: Antitumor activity against human HT1080 cells at 0.5 uM incubated for 72 hrs by MTT assay; assay type: functional, cell-based
NUGC-3 [16] = experiment: Antitumor activity against human NUGC3 cells at 0.5 uM incubated for 72 hrs by MTT assay; assay type: functional, cell-based
MCF7 [17] = experiment: Antitumor activity against human MCF7 cells at 0.5 uM incubated for 72 hrs by MTT assay; assay type: functional, cell-based

Molecule | IC50 (HL-60 [1]) [µM] | IC50 (DLD-1 [2]) [µM] | IC50 (HT-1080 [3]) [µM] | IC50 (P388 [5]) [µM] | IC50 (MCF7 [6]) [µM] | IC50 (B16-F10 [7]) [µM] | IC50 (KB [8]) [µM] | CC50 at 24 h [4] [µM] | IC50 (NUGC-3 [9]) [µM] | Activity (KB [10]) | Activity (HL-60 [11]) | Activity (DLD-1 [12]) | Activity (P388 [13]) | Activity (B16-F10 [14]) | Activity (HT-1080 [15]) | Activity (NUGC-3 [16]) | Activity (MCF7 [17])
FC(F)(F)c1ccc(-c2cn(Cc3ccccc3)nn2)cc1 | 171 | 74.3 | 57.7 | 17.5 | 162 | 35.4 | 60.2 | > 100 | 81 | – | – | – | – | – | – | – | –
CCCCc1cn(Cc2ccccc2)nn1 | > 100 | > 100 | > 100 | 217 | > 100 | 421 | > 100 | > 100 | > 100 | – | – | – | – | – | – | – | –
1-Benzyl-4-(p-tolyl)-5-(diphenylstibano)-1H-1,2,3-triazole | – | – | – | – | – | – | – | – | – | Active | Active | Active | Active | Active | Active | Active | Active
COc1ccc(-c2cn(Cc3ccccc3)nn2)cc1 | > 100 | 139 | 146 | 83.8 | 231 | 88.5 | 86.6 | > 100 | 158 | – | – | – | – | – | – | – | –

More lines, main results first:

IC50 (HL-60 [1]) [µM] | IC50 (DLD-1 [2]) [µM] | IC50 (HT-1080 [3]) [µM] | IC50 (P388 [5]) [µM] | IC50 (MCF7 [6]) [µM] | IC50 (B16-F10 [7]) [µM] | IC50 (KB [8]) [µM] | Molecule | CC50 at 24 h [4] [µM] | IC50 (NUGC-3 [9]) [µM] | Activity (KB [10]) | Activity (HL-60 [11]) | Activity (DLD-1 [12]) | Activity (P388 [13]) | Activity (B16-F10 [14]) | Activity (HT-1080 [15]) | Activity (NUGC-3 [16]) | Activity (MCF7 [17])
> 100 | 102 | 84.4 | 94.1 | 253 | 66.4 | 79.5 | Cc1ccc(-c2cn(Cc3ccccc3)nn2)cc1 | > 100 | 129 | – | – | – | – | – | – | – | –
171 | > 100 | 219 | 49.6 | > 100 | 45.5 | > 100 | C1=C(c2cn(Cc3ccccc3)nn2)CCCC1 | > 100 | > 100 | – | – | – | – | – | – | – | –
> 100 | > 100 | 651 | 99.1 | 490 | 96.1 | > 100 | c1ccc(Cn2cc(-c3ccccc3)nn2)cc1 | > 100 | 836 | – | – | – | – | – | – | – | –
